According to the supplement of paper PMC9663587:

Key:
[1] = compound: C1=CC(=CC(=C1)N2C(=O)C=CC3=CN=C4C=CC(=CC4=C32)C5=CN=C(C=C5)N)C(F)(F)F [Torin2]
[2] = compound: C1=CC2=C(C=CC(=C2)C=C3C(=O)NC(=NCC4=CC=CS4)S3)N=C1 [R0-3306]
[3] = compound: C=CCn1c(=O)c2cnc(Nc3ccc(N4CCN(C)CC4)cc3)nc2n1-c1cccc(C(C)(C)O)n1 [AZD1775]
[4] = compound: CC(=O)Nc1cccc(-n2c(=O)n(C3CC3)c(=O)c3c(Nc4ccc(I)cc4F)n(C)c(=O)c(C)c32)c1
[5] = compound: CC(=O)c1c(C)c2cnc(Nc3ccc(N4CCNCC4)cn3)nc2n(C2CCCC2)c1=O
[6] = compound: CC(C)NC[C@@H](C(=O)N1CCN(c2ncnc3c2[C@H](C)C[C@H]3O)CC1)c1ccc(Cl)cc1 [Ipatasertib/GDC0068]
[7] = compound: CC(C)Nc1cc(-c2c[nH]c(C(=O)N[C@H](CO)c3cccc(Cl)c3)c2)c(Cl)cn1 [BVD523]
[8] = compound: CC(C)n1nc(-c2ccc3oc(N)nc3c2)c2c(N)ncnc21 [INK128/MLN0128]
[9] = compound: CC1=CN2C(=O)C=C(N=C2C(=C1)C(C)NC3=CC=CC=C3)N4CCOCC4 [TGX221]
[10] = compound: CCC1=CN=CN=C1N2CCN(CC2)CC3=NC4=C(N3)C=C(C=C4)C(F)(F)F
[11] = compound: CCOc1cc2ncc(C#N)c(Nc3ccc(OCc4ccccn4)c(Cl)c3)c2cc1NC(=O)/C=C/CN(C)C [Neratinib/HKI272]
[12] = compound: CC[C@@H]1C(=O)N(C)c2cnc(Nc3ccc(C(=O)N[C@H]4CC[C@H](N5CCN(CC6CC6)CC5)CC4)cc3OC)nc2N1C(C)C [Volasertib/BI6727]
[13] = compound: CN(C)C(=O)c1cc2cnc(Nc3ccc(N4CCNCC4)cn3)nc2n1C1CCCC1 [LEE011/Ribociclib]
[14] = compound: CN(C)C/C=C/C(=O)Nc1ccc(C(=O)N2CCC[C@@H](Nc3ncc(Cl)c(-c4c[nH]c5ccccc45)n3)C2)cc1 [THZ531]
[15] = compound: CN(C)C/C=C/C(=O)Nc1ccc(C(=O)Nc2cccc(Nc3ncc(Cl)c(-c4c[nH]c5ccccc45)n3)c2)cc1 [THZ1]
[16] = compound: CN(C)CC[C@H](CSc1ccccc1)Nc1ccc(S(=O)(=O)NC(=O)c2ccc(N3CCN(Cc4ccccc4-c4ccc(Cl)cc4)CC3)cc2)cc1[N+](=O)[O-] [ABT-737]
[17] = compound: CN1CCN(C(=O)c2ccc3cc(CCNc4ncnc5ccc(C#N)cc45)ccc3c2)CC1 [senexin b]
[18] = compound: CN1CC[C@H](c2c(O)cc(O)c3c(=O)cc(-c4ccccc4Cl)oc23)[C@H](O)C1 [Flavopiridol]
[19] = compound: CNC(=O)c1cccc(-c2ccc3c(N4CCOC[C@@H]4C)nc(N4CCOC[C@@H]4C)nc3n2)c1 [AZD2014]
[20] = compound: CNCc1ccc(-c2[nH]c3cc(F)cc4c3c2CCNC4=O)cc1 [Rucaparib]
[21] = compound: CNc1nc(-c2ccc3c(N)n[nH]c3c2)cc(N2C[C@@H](C(=O)NC3CCCCC3)CC[C@H]2C)n1
[22] = compound: CO[C@@H](C)Cn1c(=O)n(C)c2cnc3ccc(-c4cncc(C(C)(C)O)c4)cc3c21
[23] = compound: COc1cc2c(Oc3ccc4[nH]c(C)cc4c3F)ncnc2cc1OCCCN1CCCC1 [Cediranib/AZD2171]
[24] = compound: COc1ccc2c(c1)[C@]1(C[C@H]1c1ccc3c(/C=C/c4ccc(CN5C[C@@H](C)O[C@@H](C)C5)cc4)n[nH]c3c1)C(=O)N2
[25] = compound: COc1cccc2c1C(=O)c1c(O)c3c(c(O)c1C2=O)C[C@@](O)(C(=O)CO)C[C@@H]3O[C@H]1C[C@H](N)[C@H](O)[C@H](C)O1 [Doxorubicin]
[26] = compound: CS(=O)(=O)N1CCN(Cc2cc3nc(-c4cccc5[nH]ncc45)nc(N4CCOCC4)c3s2)CC1 [Pictilisib/GDC0941]
[27] = compound: C[C@@H]1COCCN1c1cc(C2([S@](C)(=N)=O)CC2)nc(-c2cc[nH]c3nccc2-3)n1 [AZD6738]
[28] = compound: Cc1nc(-c2cn3c(n2)-c2ccc(-c4cnn(C(C)(C)C(N)=O)c4)cc2OCC3)n(C(C)C)n1 [Taselisib/GDC0032]
[29] = compound: Cc1nc(NC(=O)N2CCC[C@H]2C(N)=O)sc1-c1ccnc(C(C)(C)C(F)(F)F)c1 [Alpelisib/BYL719]
[30] = compound: Cc1nc(Nc2ncc(C(=O)Nc3c(C)cccc3Cl)s2)cc(N2CCN(CCO)CC2)n1 [Dasatinib]
[31] = compound: Cc1nn(C)c(COc2ccc(N3CCN(S(=O)(=O)N(C)C)CC3)cc2)c1-c1cccc2c(CCCOc3cccc4ccccc34)c(C(=O)O)n(CCN3CCOCC3)c12
[32] = compound: NC(=O)Nc1cc(-c2cccc(F)c2)sc1C(=O)N[C@H]1CCCNC1 [AZD7762]
[33] = compound: O=C(c1cc(Cc2n[nH]c(=O)c3ccccc23)ccc1F)N1CCN(C(=O)C2CC2)CC1 [Olaparib/AZD2281]
[34] = compound: O=C1NC(=O)[C@@H](c2cn3c4c(cccc24)CCC3)[C@@H]1c1c[nH]c2ccccc12 [Tivantinib/ARQ197]
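Also: breast cancer and non-malignant breast epithelial cell lines, Deep Dye Drop or Dye Drop imaging, nine half-log doses, GR normalized to time-zero plates and DMSO-only controls.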

| Cell Line | GR50, 72 h [1] [µM] | GR50, 72 h [2] [µM] | GR50, 72 h [3] [µM] | GR50, 72 h [4] [µM] | GR50, 72 h [5] [µM] | GR50, 72 h [6] [µM] | GR50, 72 h [7] [µM] | GR50, 72 h [8] [µM] | GR50, 72 h [9] [µM] | GR50, 72 h [10] [µM] | GR50, 72 h [11] [µM] | GR50, 72 h [12] [µM] | GR50, 72 h [13] [µM] | GR50, 72 h [14] [µM] | GR50, 72 h [15] [µM] | GR50, 72 h [16] [µM] | GR50, 72 h [17] [µM] | GR50, 72 h [18] [µM] | GR50, 72 h [19] [µM] | GR50, 72 h [20] [µM] | GR50, 72 h [21] [µM] | GR50, 72 h [22] [µM] | GR50, 72 h [23] [µM] | GR50, 72 h [24] [µM] | GR50, 72 h [25] [µM] | GR50, 72 h [26] [µM] | GR50, 72 h [27] [µM] | GR50, 72 h [28] [µM] | GR50, 72 h [29] [µM] | GR50, 72 h [30] [µM] | GR50, 72 h [31] [µM] | GR50, 72 h [32] [µM] | GR50, 72 h [33] [µM] | GR50, 72 h [34] [µM] |
| --- | --- | --- | --- | --- | --- | --- | --- | --- | --- | --- | --- | --- | --- | --- | --- | --- | --- | --- | --- | --- | --- | --- | --- | --- | --- | --- | --- | --- | --- | --- | --- | --- | --- | --- |
| MCF12A | 0.0424 | 9.7 | 1.92 | 0.00833 | > 3.16 | > 10 | 5.73 | 0.022 | > 10 | > 10 | 0.422 | 0.0519 | > 10 | 0.632 | 0.15 | > 10 | > 10 | 0.38 | 0.0768 | > 10 | > 10 | 0.167 | > 10 | 0.0103 | 0.0155 | 6.67 | 3.06 | 1.11 | > 10 | 0.209 | > 10 | 0.129 | > 10 | 0.291 |
| MDAMB231 | 0.0251 | 8.73 | 0.0633 | 0.00263 | 0.109 | > 10 | 1.13 | 0.0218 | > 10 | > 10 | 1.43 | 0.00436 | 0.995 | 0.245 | 0.0662 | 3.03 | > 10 | 0.139 | 0.583 | > 10 | > 10 | 0.031 | 5.1 | 0.00366 | 0.00504 | 5.32 | 8.89 | 2.2 | > 10 | 0.0294 | > 10 | 0.163 | > 10 | 0.416 |
| MDAMB415 | 0.00771 | > 10 | 1.56 | 0.278 | 0.0304 | 0.0507 | > 10 | 0.0102 | 1.81 | 8.3 | 1.65 | 0.0112 | 0.00974 | 0.0474 | 0.0347 | 7.69 | > 10 | 0.172 | 0.006 | > 10 | 1.34 | < 0.001 | 1.46 | 0.0239 | 0.00521 | 0.597 | > 10 | 0.293 | > 10 | 0.236 | > 10 | 0.475 | > 10 | 1.5 |
| MDAMB453 | 0.0086 | 5.95 | 0.112 | 0.0339 | 0.0428 | 0.542 | 7.79 | 0.00996 | > 10 | 4.29 | 0.0361 | 0.00726 | 0.0388 | 0.0236 | 0.0116 | 5.97 | 3.93 | 0.134 | 0.00364 | 6.58 | 2.12 | < 0.001 | 2.79 | 0.00348 | 0.00587 | 0.455 | 4.74 | 0.00346 | 0.538 | > 10 | > 10 | 0.0116 | 1.67 | 0.201 |
| MDAMB468 | 0.016 | 4.57 | 0.25 | 0.442 | > 3.16 | 2.36 | 1.64 | 0.0235 | > 10 | 4.17 | 0.158 | 0.0021 | > 10 | 0.0412 | 0.0236 | 6.03 | 2.04 | 0.173 | 0.523 | 8.56 | > 10 | 0.0123 | 3.92 | 0.00342 | 0.00542 | 2.33 | > 10 | 2.35 | > 10 | 4.41 | > 10 | 0.287 | 7.92 | 0.307 |
| PDX1258 | 0.0356 | 5.5 | 0.0187 | > 1 | > 3.16 | 4.37 | 4.62 | 0.044 | > 10 | > 10 | 1.1 | 0.00743 | > 10 | 0.0492 | 0.0148 | > 10 | > 10 | 0.0943 | 0.401 | > 10 | > 10 | 0.0944 | 4.71 | 0.00294 | 0.00914 | 1.7 | 3.53 | 0.996 | > 10 | 0.0216 | > 10 | 0.0152 | > 10 | 0.397 |
| PDXHCI002 | 0.123 | 6.43 | 0.23 | > 1 | 0.127 | > 10 | 4.27 | 0.169 | > 10 | > 10 | 0.162 | 0.00369 | > 10 | 0.0493 | 0.0115 | 5.62 | > 10 | 0.114 | 9.69 | > 10 | > 10 | 1.82 | 1.47 | 0.00689 | 0.00405 | 2.25 | > 10 | 0.6 | > 10 | 0.509 | > 10 | 0.0705 | 3.93 | 0.238 |
